Reference: the supplement of paper PMC13380429

Tests used:
A549-ACE2 = assay: phospholipidosis EC50; higher = less potent phospholipidosis inducer; conditions: 24 h
[1] = system: A549-ACE2 infected with SARS-CoV-2; assay: morphology score (similarity to uninfected cells); higher = more like uninfected cells; conditions: 24 h
Caco-2 [2] = assay: drug sensitivity score (DSS) for viability; higher = more toxic; extreme values may be limits of the assay; conditions: 72 h
U2OS [3] = assay: as above; conditions: 72 h
Vero E6 [4] = assay: as above; conditions: 72 h
Calu-3 [5] = assay: as above; conditions: 72 h
HepG2 [6] = assay: as above; conditions: 72 h
Caco-2 [7] = assay: cell viability relative to DMSO; higher = less toxic; conditions: 72 h
U2OS [8] = assay: as above; conditions: 72 h
Vero E6 [9] = assay: as above; conditions: 72 h
Calu-3 [10] = assay: as above; conditions: 72 h
HepG2 [11] = assay: as above; conditions: 72 h
Caco-2 [12] = assay: relative viability EC50 (midpoint between 100% and the lowest measured viability); higher = less toxic; conditions: 72 h
U2OS [13] = assay: as above; conditions: 72 h
Vero E6 [14] = assay: as above; conditions: 72 h
Calu-3 [15] = assay: as above; conditions: 72 h
HepG2 [16] = assay: as above; conditions: 72 h

Compound	phospholipidosis EC50 (A549-ACE2)	morphology score ([1]; 0.1 µM)	morphology score ([1]; 0.3 µM)	morphology score ([1]; 1 µM)	morphology score ([1]; 3 µM)	drug sensitivity score (Caco-2 [2])	drug sensitivity score (U2OS [3])	drug sensitivity score (Vero E6 [4])	drug sensitivity score (Calu-3 [5])	drug sensitivity score (HepG2 [6])	cell viability (Caco-2 [7]; 1 nM)	cell viability (Caco-2 [7]; 10 nM)	cell viability (Caco-2 [7]; 100 nM)	cell viability (Caco-2 [7]; 1000 nM)	cell viability (Caco-2 [7]; 10000 nM)	cell viability (U2OS [8]; 1 nM)	cell viability (U2OS [8]; 10 nM)	cell viability (U2OS [8]; 100 nM)	cell viability (U2OS [8]; 1000 nM)	cell viability (U2OS [8]; 10000 nM)	cell viability (Vero E6 [9]; 1 nM)	cell viability (Vero E6 [9]; 10 nM)	cell viability (Vero E6 [9]; 100 nM)	cell viability (Vero E6 [9]; 1000 nM)	cell viability (Vero E6 [9]; 10000 nM)	cell viability (Calu-3 [10]; 1 nM)	cell viability (Calu-3 [10]; 10 nM)	cell viability (Calu-3 [10]; 100 nM)	cell viability (Calu-3 [10]; 1000 nM)	cell viability (Calu-3 [10]; 10000 nM)	cell viability (HepG2 [11]; 1 nM)	cell viability (HepG2 [11]; 10 nM)	cell viability (HepG2 [11]; 100 nM)	cell viability (HepG2 [11]; 1000 nM)	cell viability (HepG2 [11]; 10000 nM)	relative viability EC50 (Caco-2 [12])	relative viability EC50 (U2OS [13])	relative viability EC50 (Vero E6 [14])	relative viability EC50 (Calu-3 [15])	relative viability EC50 (HepG2 [16])
COc1cc(C(=O)NC2CCN(C)CC2)c(F)cc1Nc1ncc2c(n1)N(C1CCCC1)CC(F)(F)C(=O)N2C [TAK-960]	3.2 µM	-0.06	-0.01	0.15	0.58	10.9	12.5	12.5	4.3	21.8																														
O=S(=O)(NCCCCCCc1ccccc1)c1cccc2c(Cl)cccc12 [SC-9]						0	0	0	0	0	91.8%	89%	87.2%	101%	94.5%	94.6%	97.9%	92.7%	97.4%	99.5%	99%	101%	96.8%	102%	107%	102%	108%	102%	96.8%	101%	105%	96.6%	103%	108%	119%	> 10 µM	> 10 µM	> 10 µM	> 10 µM	> 10 µM
Clc1ccc(C(Cn2ccnc2)OCc2ccsc2Cl)c(Cl)c1 (stereo not given) [tioconazole]						0.6	0	0	0	0	106%	95%	93.5%	99%	81.2%	100%	97.2%	96.9%	92.9%	93%	100%	104%	99.8%	97%	101%	103%	92.8%	102%	90.8%	99.5%	108%	100%	112%	102%	90.7%	> 10 µM	> 10 µM	> 10 µM	> 10 µM	> 10 µM
BrC1C(Br)C(Br)C(Br)C(Br)C1Br (stereo not given) [1,2,3,4,5,6-hexabromocyclohexane]						0	0	0	0	0	96.4%	93.6%	97.3%	102%	98.4%	99.1%	96.4%	101%	95.1%	101%	99.7%	107%	101%	105%	93.9%	106%	104%	104%	87.3%	105%	95.8%	106%	89.1%	99.8%	90.2%	> 10 µM	> 10 µM	> 10 µM	> 10 µM	> 10 µM
